Measured values: patent US20130330322A1, “Methods of Treating Skin Aging With Toll-Like Receptor 7 Agonists” (Metabeauty, Inc., priority 2012, published 2013)

Tests used:
PBMC and pDC = test: cytokine production by PBMC and plasmacytoid dendritic cells (RT-PCR, ELISA); format: cell-based, human; conditions: added at 0.02% to 1% at the same time as TLR-7 agonists
Method: Cytokine production by plasmacytoid dendritic cells is measured using real-time RT-PCR on RNA collected from peripheral blood mononuclear cells (PBMC) including pDC (plasmacytoid dendritic cells).
An IRM (TLR-7 agonist) as described in one of the four embodiments of the present invention is introduced into a 24-well plate containing PBMC and pDC h Control wells are treated with DMSO. Cells are incubated for either one or two hours at 37° C. At the indicated times the cells are harvested by gently pipeting the cells into a 1.5 mL Eppendorf tube and centrifuging at 400 RCF for 10 min at 4° C. The supernatant is removed from the tube and the cells are lysed with 1 mL TRIzol (Life Technologies). […] RNA is quantified by absorbency (Abs260) and is reverse-transcribed using SuperScript First Strand Synthesis System for RT-PCR (Life Technologies). Primers for quantitative PCR are generated using Primer Express (PE Applied Biosystems). […] Quantitative PCR is performed on an ABI PRISM 7700 Sequence Detector. Amplified products are detected using SYBR Green PCR Master Mix (PE Biosystems). […] Relative quantitation of gene expression was performed using the DDCt method (User Bulletin #2, PE Applied Systems).
Cytokine and chemokine protein levels are measured from tissue culture supernatants or cell extracts using commercially-available enzyme-linked immuno assay (ELISA) kits. […]

aging skin [1] = test: twelve-week clinical study, combined contemporaneous treatment with IRM and retinoid (2a); format: in vivo, human; conditions: contemporaneous application
Method: On Day 0, each enrolled subject is supplied with a package of individually coded tubes of cream, labeled “Tube A” and “Tube B”. Tube A contains one of two formulations: 5% IRM+vehicle (carrier); or vehicle only (placebo); Tube B contains either 0.025% tretinoin in a cream formulation or vehicle only (placebo). The subjects apply Tube A to the arms and face, wait 5 minutes, and then apply the contents of Tube B over the same area. Labels are randomly assigned with records separately maintained identifying the formulation. Codes are not known to either the subjects or the investigator until the study is completed and the data analyzed. All subjects receive Cetaphil cleanser, moisturizer and sunscreen for daily use throughout the study. The first application of Tube A and B is done in the presence of the study coordinator to ensure proper application. Written directions are given to the subjects to apply the products at the same time of day every day and to apply Tube B five minutes after applying Tube A.
Study participants apply the study creams once daily for 12 weeks. […]
Skin firmness (elasticity) is assessed using a ballistometer. Skin retention of water/skin moisture content is assessed via impedance measurements on the cheek area of subjects using a Novameter. Transepidermal water loss is measured using a Tewameter. Sebum secretion is measured using a Sebometer and Sebutape.

aging skin [2] = test: clinical study, combined day/night treatment with IRM and retinoid (2b); format: in vivo, human; conditions: day/night application
Method: The above study is repeated except that the topical composition containing the IRM is applied in the morning and a topical composition containing tretinoin is applied at night. Standard 2-4 mm skin punch biopsies are taken at pre-identified sites (on subject's arms) on Day 0 and at the Week 12 visit. Subjects apply the assigned formulation in the presence of the investigator and return for a biopsy within 4-6 hours.

[3] = test system: normal photodamaged dermal or epidermal tissue; conditions: topical application; cited from earlier work

Row | SMILES | amount of IFN-γ expressed by PBMC cells upon exposure to the TLR-7 agonist (PBMC and pDC) | Irritation (erythema and scaling) (aging skin [1]) | TEWL (Tewameter) (aging skin [1]) | Irritation (erythema and scaling) (aging skin [2]) | TEWL (Tewameter) (aging skin [2]) | time until improved appearance (reduction in the appearance of fine lines and wrinkles) is visible [3]
1 | CC1=C(/C=C/C(C)=C/C=C/C(C)=C/C(=O)O)C(C)(C)CCC1 [tretinoin, all-trans retinoic acid] | lowers | at all time points but maximally at the 2 and 4 week time points | increased TEWL | at all time points but maximally at the 2 and 4 week time points | increased TEWL | 
2 | CC(C)Cn1cnc2c(N)nc3ccccc3c21 [Imiquimod, 1-isobutyl-1H-imidazo[4,5,-C]quinolin-4-amine] |  |  |  |  |  | ≤ 4 weeks
